Laboratory results as given in ChEMBL document CHEMBL4507310, “Data for DCP probe A-1211212” (2021).

Experiments:
[1] = biological target: Fibroblast growth factor receptor 1 (Homo sapiens) (UniProt P11362); conditions: Compound concentration 1000.0 nM
[2] = biological target: T1, Alpha-2A adrenergic receptor (Homo sapiens) (UniProt P08913); conditions: Compound concentration 10.0 uM
T1 sequence (whole entry): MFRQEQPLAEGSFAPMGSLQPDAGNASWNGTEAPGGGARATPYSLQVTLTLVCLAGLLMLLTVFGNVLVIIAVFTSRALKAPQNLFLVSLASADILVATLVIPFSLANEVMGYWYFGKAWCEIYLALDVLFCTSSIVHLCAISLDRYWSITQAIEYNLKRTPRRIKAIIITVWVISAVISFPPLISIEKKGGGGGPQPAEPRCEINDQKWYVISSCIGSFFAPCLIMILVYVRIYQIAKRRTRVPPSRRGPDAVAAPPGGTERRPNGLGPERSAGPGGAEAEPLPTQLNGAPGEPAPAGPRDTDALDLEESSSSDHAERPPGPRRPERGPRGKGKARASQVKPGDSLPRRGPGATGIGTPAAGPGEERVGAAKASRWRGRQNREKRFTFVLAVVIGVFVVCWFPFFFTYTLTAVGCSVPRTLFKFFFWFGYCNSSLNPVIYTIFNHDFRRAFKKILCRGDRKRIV

[3] = system: Proto-oncogene tyrosine-protein kinase receptor Ret (Homo sapiens), P07949 [V804M]; conditions: Compound concentration 1000.0 nM
[4] = biological target: Myotonin-protein kinase (Homo sapiens) (UniProt Q09013); conditions: Compound concentration 1000.0 nM
Myotonin-protein kinase (Homo sapiens), sequence (Q09013 whole entry): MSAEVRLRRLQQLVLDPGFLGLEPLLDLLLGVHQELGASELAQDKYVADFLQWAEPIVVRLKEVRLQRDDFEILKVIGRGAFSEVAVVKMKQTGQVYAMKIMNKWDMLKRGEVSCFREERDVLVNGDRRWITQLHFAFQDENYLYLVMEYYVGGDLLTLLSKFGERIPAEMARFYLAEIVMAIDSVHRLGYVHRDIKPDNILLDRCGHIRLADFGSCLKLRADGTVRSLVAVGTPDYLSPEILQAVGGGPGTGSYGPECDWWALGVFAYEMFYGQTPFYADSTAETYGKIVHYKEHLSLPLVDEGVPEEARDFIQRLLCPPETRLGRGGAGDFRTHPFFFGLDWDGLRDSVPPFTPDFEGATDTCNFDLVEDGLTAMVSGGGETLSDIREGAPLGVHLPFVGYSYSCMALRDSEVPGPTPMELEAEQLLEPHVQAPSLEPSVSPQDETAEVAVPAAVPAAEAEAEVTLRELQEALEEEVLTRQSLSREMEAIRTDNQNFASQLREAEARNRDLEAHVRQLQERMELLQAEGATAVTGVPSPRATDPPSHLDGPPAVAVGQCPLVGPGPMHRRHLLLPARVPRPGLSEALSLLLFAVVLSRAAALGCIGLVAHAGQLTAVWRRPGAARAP

[5] = biological target: Dual specificity tyrosine-phosphorylation-regulated kinase 1B (Homo sapiens) (UniProt Q9Y463); conditions: Compound concentration 1000.0 nM
[6] = biological target: Prostaglandin G/H synthase 1 (Homo sapiens) (UniProt P23219); experiment: COX1(h) Eurofins-Cerep enzyme and uptake assay; conditions: Compound concentration 10.0 uM
Prostaglandin G/H synthase 1 (Homo sapiens), sequence (P23219 whole entry): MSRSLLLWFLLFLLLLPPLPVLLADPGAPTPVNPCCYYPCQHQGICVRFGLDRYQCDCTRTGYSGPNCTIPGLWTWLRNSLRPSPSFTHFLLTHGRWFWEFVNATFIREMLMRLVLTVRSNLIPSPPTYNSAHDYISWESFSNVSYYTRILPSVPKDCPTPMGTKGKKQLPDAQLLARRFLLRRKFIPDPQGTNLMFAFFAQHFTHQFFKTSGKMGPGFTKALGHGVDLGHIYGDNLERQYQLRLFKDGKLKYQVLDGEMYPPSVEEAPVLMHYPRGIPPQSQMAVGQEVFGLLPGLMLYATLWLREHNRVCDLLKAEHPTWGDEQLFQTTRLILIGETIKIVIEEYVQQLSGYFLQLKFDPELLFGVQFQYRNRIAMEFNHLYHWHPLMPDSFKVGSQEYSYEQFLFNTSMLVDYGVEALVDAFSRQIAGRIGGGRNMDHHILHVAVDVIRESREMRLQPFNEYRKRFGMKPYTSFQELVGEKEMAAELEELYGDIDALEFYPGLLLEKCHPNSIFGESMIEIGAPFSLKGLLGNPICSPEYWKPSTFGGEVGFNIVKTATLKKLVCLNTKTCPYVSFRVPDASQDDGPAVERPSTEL

[7] = biological target: Serine/threonine-protein kinase WNK4 (Homo sapiens) (UniProt Q96J92); conditions: Compound concentration 1000.0 nM
[8] = biological target: Tyrosine-protein kinase Fer (Homo sapiens) (UniProt P16591); conditions: Compound concentration 1000.0 nM
[9] = biological target: Ribosomal protein S6 kinase alpha-4 (Homo sapiens) (UniProt O75676); conditions: Compound concentration 1000.0 nM
[10] = biological target: Ephrin type-B receptor 2 (Homo sapiens) (UniProt P29323); conditions: Compound concentration 1000.0 nM
[11] = biological target: Ribosomal protein S6 kinase alpha-3 (Homo sapiens) (UniProt P51812); conditions: Compound concentration 1000.0 nM
[12] = biological target: Megakaryocyte-associated tyrosine-protein kinase (Homo sapiens) (UniProt P42679); conditions: Compound concentration 1000.0 nM
[13] = biological target: Type-1 angiotensin II receptor (Homo sapiens) (UniProt P30556); experiment: AT1 (h) Eurofins-Cerep binding assay; set-up: ligand concentration 0.05 nM; conditions: filed as antagonist, Compound concentration 10.0 uM
[14] = biological target: Calcium/calmodulin-dependent protein kinase kinase 2 (Homo sapiens) (UniProt Q96RR4); conditions: Compound concentration 1000.0 nM
[15] = biological target: Interleukin-1 receptor-associated kinase 3 (Homo sapiens) (UniProt Q9Y616); conditions: Compound concentration 1000.0 nM
[16] = biological target: Mitogen-activated protein kinase kinase kinase 12 (Homo sapiens) (UniProt Q12852); conditions: Compound concentration 1000.0 nM
Mitogen-activated protein kinase kinase kinase 12 (Homo sapiens), sequence (Q12852 whole entry): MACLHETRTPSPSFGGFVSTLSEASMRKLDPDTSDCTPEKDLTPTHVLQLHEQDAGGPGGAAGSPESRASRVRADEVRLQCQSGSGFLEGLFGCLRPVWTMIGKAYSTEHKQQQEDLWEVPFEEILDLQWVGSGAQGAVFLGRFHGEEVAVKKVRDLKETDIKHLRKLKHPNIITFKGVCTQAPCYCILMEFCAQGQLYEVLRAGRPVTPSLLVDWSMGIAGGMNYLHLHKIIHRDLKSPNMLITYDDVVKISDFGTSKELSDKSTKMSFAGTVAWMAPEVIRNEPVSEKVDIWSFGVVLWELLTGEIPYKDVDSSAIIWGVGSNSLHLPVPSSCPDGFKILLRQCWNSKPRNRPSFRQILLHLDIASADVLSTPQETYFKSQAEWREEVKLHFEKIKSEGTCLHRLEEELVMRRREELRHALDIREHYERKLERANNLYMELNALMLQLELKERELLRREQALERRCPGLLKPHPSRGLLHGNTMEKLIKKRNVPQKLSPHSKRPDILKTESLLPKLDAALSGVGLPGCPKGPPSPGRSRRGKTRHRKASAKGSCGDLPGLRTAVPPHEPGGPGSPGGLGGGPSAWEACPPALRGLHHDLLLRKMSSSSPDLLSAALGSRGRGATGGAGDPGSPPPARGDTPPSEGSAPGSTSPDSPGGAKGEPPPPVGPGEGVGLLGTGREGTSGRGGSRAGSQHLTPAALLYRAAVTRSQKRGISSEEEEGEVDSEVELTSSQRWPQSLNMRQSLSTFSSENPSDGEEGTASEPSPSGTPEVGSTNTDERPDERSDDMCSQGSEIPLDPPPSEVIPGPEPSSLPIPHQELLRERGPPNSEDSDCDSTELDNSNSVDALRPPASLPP

[17] = biological target: Mitogen-activated protein kinase 13 (Homo sapiens) (UniProt O15264); conditions: Compound concentration 1000.0 nM
[18] = biological target: Cyclin-dependent kinase-like 1 (Homo sapiens) (UniProt Q00532); conditions: Compound concentration 1000.0 nM
Cyclin-dependent kinase-like 1 (Homo sapiens), sequence (Q00532 whole entry): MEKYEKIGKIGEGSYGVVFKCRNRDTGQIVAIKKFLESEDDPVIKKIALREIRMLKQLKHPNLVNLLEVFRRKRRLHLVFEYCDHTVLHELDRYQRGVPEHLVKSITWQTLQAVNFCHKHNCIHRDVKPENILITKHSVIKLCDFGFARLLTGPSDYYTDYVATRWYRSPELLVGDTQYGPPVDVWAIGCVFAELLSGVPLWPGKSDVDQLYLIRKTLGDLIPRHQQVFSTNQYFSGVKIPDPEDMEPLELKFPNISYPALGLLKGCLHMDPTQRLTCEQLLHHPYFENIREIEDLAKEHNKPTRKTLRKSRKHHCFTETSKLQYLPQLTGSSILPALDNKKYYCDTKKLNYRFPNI

[19] = biological target: Vasoactive intestinal polypeptide receptor 1 (Homo sapiens) (UniProt P32241); experiment: VPAC1 (VIP1) (h) Eurofins-Cerep binding assay; set-up: ligand concentration 0.04 nM; conditions: filed as agonist, Compound concentration 10.0 uM
[20] = biological target: Histamine H2 receptor (Homo sapiens) (UniProt P25021); conditions: Compound concentration 10.0 uM
[21] = biological target: Ribosomal protein S6 kinase beta-1 (Homo sapiens) (UniProt P23443); conditions: Compound concentration 1000.0 nM
[22] = system: Epidermal growth factor receptor (Homo sapiens), P00533 [G719S]; conditions: Compound concentration 1000.0 nM
[23] = biological target: cGMP-inhibited 3',5'-cyclic phosphodiesterase 3A (Homo sapiens) (UniProt Q14432); experiment: PDE3A (h) Eurofins-Cerep enzyme and uptake assay; conditions: Compound concentration 10.0 uM
[24] = system: Mast/stem cell growth factor receptor Kit (Homo sapiens), P10721 [V559D,T670I]; conditions: Compound concentration 1000.0 nM
[25] = system: Tyrosine-protein kinase ABL1 (Homo sapiens), P00519 [Q252H]; conditions: Compound concentration 1000.0 nM
[26] = biological target: Myosin light chain kinase, smooth muscle (Homo sapiens) (UniProt Q15746); conditions: Compound concentration 1000.0 nM
[27] = biological target: GABA-A receptor; anion channel (Rattus norvegicus) (UniProt O09028+P15431+P18506+P18508+P19969+P20236+P23574+P23576+P28471+P28473+P30191+P62813+P63079+P63138+Q91ZM7+Q9ES14); experiment: Cl- channel (GABA-gated) Eurofins-Cerep binding assay; type: protein-complex assay; set-up: ligand concentration 3 nM; conditions: filed as antagonist, Compound concentration 10.0 uM
[28] = biological target: Serine/threonine-protein kinase Nek9 (Homo sapiens) (UniProt Q8TD19); conditions: Compound concentration 1000.0 nM
Serine/threonine-protein kinase Nek9 (Homo sapiens), sequence (Q8TD19 whole entry, the tested form may be a part): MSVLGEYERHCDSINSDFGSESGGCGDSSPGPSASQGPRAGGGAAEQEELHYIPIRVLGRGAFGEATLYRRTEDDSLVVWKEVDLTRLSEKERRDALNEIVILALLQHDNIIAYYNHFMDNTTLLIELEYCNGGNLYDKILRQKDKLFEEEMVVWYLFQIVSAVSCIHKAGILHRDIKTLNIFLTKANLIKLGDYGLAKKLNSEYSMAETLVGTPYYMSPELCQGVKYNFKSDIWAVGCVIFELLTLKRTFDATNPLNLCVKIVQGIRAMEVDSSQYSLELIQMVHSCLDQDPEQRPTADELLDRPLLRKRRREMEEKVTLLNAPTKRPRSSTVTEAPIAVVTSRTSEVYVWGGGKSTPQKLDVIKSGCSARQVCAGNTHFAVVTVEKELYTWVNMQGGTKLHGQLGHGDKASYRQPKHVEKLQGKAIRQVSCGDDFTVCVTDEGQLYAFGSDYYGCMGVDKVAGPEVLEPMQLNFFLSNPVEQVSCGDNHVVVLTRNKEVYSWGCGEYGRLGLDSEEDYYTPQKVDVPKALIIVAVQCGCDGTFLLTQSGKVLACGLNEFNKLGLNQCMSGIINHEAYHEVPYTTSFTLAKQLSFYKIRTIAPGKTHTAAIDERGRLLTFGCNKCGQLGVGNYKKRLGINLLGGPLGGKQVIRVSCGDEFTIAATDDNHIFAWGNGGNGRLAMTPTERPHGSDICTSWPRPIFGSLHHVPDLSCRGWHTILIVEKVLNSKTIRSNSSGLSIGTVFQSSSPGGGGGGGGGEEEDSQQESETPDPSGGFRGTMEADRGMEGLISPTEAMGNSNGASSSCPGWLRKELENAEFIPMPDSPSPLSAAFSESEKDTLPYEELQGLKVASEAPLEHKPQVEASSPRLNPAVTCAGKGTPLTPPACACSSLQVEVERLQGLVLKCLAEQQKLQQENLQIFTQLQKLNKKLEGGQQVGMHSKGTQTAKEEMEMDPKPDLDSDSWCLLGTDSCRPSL

[29] = biological target: Ankyrin repeat and protein kinase domain-containing protein 1 (Homo sapiens) (UniProt Q8NFD2); conditions: Compound concentration 1000.0 nM
Ankyrin repeat and protein kinase domain-containing protein 1 (Homo sapiens), sequence (Q8NFD2 whole entry, the tested form may be a part): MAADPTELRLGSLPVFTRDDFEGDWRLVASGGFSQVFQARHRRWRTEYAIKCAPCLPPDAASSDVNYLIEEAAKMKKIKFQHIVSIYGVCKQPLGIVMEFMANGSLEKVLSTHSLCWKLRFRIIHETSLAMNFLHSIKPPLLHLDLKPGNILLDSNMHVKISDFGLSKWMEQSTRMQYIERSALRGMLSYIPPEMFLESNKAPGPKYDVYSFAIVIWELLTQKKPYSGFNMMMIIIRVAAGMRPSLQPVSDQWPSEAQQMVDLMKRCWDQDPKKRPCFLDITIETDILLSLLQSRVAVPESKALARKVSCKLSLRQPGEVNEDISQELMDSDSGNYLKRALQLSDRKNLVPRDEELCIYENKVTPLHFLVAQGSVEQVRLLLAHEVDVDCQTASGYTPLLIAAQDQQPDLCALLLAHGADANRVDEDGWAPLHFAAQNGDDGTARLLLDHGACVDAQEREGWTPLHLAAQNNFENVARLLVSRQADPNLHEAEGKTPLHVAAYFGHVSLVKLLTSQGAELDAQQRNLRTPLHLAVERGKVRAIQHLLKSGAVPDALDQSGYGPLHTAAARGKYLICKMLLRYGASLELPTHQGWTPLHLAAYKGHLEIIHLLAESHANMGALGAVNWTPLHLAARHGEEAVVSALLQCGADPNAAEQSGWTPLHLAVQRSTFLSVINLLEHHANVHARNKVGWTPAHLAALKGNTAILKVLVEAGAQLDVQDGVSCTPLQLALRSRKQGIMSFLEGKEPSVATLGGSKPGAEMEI

[30] = biological target: STE20-like serine/threonine-protein kinase (Homo sapiens) (UniProt Q9H2G2); conditions: Compound concentration 1000.0 nM
[31] = biological target: Serine/threonine-protein kinase Nek5 (Homo sapiens) (UniProt Q6P3R8); conditions: Compound concentration 1000.0 nM
[32] = biological target: RAC-beta serine/threonine-protein kinase (Homo sapiens) (UniProt P31751); conditions: Compound concentration 1000.0 nM

Fibroblast growth factor receptor 1 (Homo sapiens), sequence (P11362 22-822 limits assumed): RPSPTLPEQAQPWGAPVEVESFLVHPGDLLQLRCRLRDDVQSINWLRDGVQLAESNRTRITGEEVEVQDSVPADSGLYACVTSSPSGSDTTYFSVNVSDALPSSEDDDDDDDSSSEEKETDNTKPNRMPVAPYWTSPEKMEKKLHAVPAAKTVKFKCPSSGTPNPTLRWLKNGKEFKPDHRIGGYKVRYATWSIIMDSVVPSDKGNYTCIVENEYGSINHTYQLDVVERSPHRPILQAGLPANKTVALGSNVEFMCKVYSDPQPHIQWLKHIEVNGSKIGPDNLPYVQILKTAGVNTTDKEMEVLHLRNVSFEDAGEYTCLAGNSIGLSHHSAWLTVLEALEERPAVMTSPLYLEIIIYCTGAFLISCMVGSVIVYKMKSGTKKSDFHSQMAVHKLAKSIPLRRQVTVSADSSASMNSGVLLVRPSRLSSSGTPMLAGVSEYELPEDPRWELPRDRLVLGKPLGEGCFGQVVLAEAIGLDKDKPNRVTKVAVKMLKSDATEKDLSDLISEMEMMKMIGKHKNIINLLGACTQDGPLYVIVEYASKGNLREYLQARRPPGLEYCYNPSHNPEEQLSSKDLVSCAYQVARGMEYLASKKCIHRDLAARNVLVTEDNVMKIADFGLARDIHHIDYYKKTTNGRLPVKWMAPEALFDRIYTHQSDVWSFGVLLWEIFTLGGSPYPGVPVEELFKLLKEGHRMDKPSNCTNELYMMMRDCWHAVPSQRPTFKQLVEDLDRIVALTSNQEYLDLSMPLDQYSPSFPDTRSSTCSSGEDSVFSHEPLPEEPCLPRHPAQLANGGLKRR

SMILES | residual activity [1] [%] | inhibition [2] [%] | residual activity [3] [%] | residual activity [4] [%] | residual activity [5] [%] | % Inhibition of Control Values (Mean n=2) [6] [%] | residual activity [7] [%] | residual activity [8] [%] | residual activity [9] [%] | residual activity [10] [%] | residual activity [11] [%] | residual activity [12] [%] | % Inhibition of Control Specific Binding (Mean n=2) [13] [%] | residual activity [14] [%] | residual activity [15] [%] | residual activity [16] [%] | residual activity [17] [%] | residual activity [18] [%] | % Inhibition of Control Specific Binding (Mean n=2) [19] [%] | inhibition [20] [%] | further results
O=C(NS(=O)(=O)c1ccc(NCC2CCOCC2)c([N+](=O)[O-])c1)c1ccc(N2CCN(Cc3ccc(C(F)(F)F)cc3-c3ccc(Cl)cc3)CC2)cc1Oc1cnc2[nH]ccc2c1 [A-1210227] | 91 | 9.67 | 100 | 100 | 80 | 3.7 | 71 | 94 | 100 | 100 | 100 | 100 | -3.9 | 99 | 100 | 100 | 99 | 100 | -57.7 | 8.95 | residual activity [21]: 81%; residual activity [22]: 76%; % Inhibition of Control Values (Mean n=2) [23]: 6%; residual activity [24]: 100%; residual activity [25]: 84%; residual activity [26]: 65%; % Inhibition of Control Specific Binding (Mean n=2) [27]: -1.3%; residual activity [28]: 100%; residual activity [29]: 77%; residual activity [30]: 100%; residual activity [31]: 100%; residual activity [32]: 100%
CO[C@H]1CC[C@H](CNc2ccc(S(=O)(=O)NC(=O)c3ccc(N4CCN(CC5=C(c6ccc(Cl)cc6)CC(C)(C)CC5)CC4)cc3Oc3cnc4[nH]ccc4c3)cc2[N+](=O)[O-])CC1 [A-1211212] | 68 | 12.5 | 93 | 91 | 71 | 6.9 | 67 | 67 | 95 | 75 | 100 | 89 | 19.3 | 81 | 100 | 100 | 96 | 94 | -26.6 | 13.6 | residual activity [21]: 86%; residual activity [22]: 65%; % Inhibition of Control Values (Mean n=2) [23]: 4.9%; residual activity [24]: 88%; residual activity [25]: 100%; residual activity [26]: 50%; % Inhibition of Control Specific Binding (Mean n=2) [27]: 1.3%; residual activity [28]: 95%; residual activity [29]: 81%; residual activity [30]: 67%; residual activity [31]: 88%; residual activity [32]: 80%
